Results as given in patent publication US20080249042A1, “All-Trans-Retinol: All-Trans-13,14-Dihydroretinol Saturase and Methods of Its Use” (UNIVERSITY OF WASHINGTON, priority 2004, published 2008).

Columns and labels:
[1] = target: T1, RALDH3 (Mus musculus, UniProt Q9JHW9); experiment: RALDH oxidation assay, transfected HEK-293S homogenate; assay type: biochemical; conditions: cell homogenate with NAD, NADP, ATP
T1 construct: expressed in transfected cells; host or cells: GnTI-negative HEK-293S, transient; cell homogenate
T1 sequence (Q9JHW9 1-512): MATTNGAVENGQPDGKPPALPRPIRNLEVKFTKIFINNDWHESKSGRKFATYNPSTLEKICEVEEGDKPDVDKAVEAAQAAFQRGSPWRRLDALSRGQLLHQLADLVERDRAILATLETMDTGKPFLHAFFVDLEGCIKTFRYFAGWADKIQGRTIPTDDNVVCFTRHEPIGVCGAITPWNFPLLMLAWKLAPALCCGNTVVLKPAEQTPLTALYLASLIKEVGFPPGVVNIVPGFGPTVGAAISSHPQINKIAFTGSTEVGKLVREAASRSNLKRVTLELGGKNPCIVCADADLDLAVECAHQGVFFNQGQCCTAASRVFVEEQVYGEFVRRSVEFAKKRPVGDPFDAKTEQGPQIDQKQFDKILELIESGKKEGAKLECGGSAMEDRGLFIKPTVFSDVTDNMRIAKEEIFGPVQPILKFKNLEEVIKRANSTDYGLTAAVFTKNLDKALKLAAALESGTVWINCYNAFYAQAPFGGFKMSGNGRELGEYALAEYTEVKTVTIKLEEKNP
Method: (§1) RALDH Oxidation Assay. N-Acetylglucosaminyltransferase I-negative HEK-293S cells, obtained from Dr. G. Khorana (Massachusetts Institute of Technology, Boston) were cultured in Dulbecco's modified Eagle's medium, 10% fetal calf serum and maintained at 37° C., 5% CO2, and 100% humidity. Reeves, et al. Proc. Natl. Acad. Sci. U.S.A. 99:13419-13424, 2002. For RALDH enzyme assays, cells were transiently transfected with RALDH1, -2, -3, or -4 expression constructs using Lipofectamine 2000 (Invitrogen) according to the manufacturer's protocol. After 48 h post-transfection, the cells were collected by scraping and were centrifuged. The cell pellet was washed in 137 mM NaCl, 2.7 mM KCl, and 10 mM phosphate (pH 7.4), resuspended in 50 mM Tris (pH 8.0) containing 250 mM sucrose, and homogenized with the aid of a Dounce homogenizer. Cofactors were added to a final concentration of 5 mM NAD, 5 mM NADP, and 1 mM ATP. An aliquot of the cell lysate was boiled for 10 min at 95° C. to provide the control for the nonenzymatic reaction. Substrates in the form of all-trans-RAL or a mixture of isomers of DRAL were added to the cell lysates at a final concentration of 60 μM. The reactions were allowed to proceed for 2 h at 37° C. with shaking and were stopped by the addition of 2 volumes of CH3CN. […] After each run, the column was washed with mixture B (60% tert-butylmethyl ether, 40% methanol) for 10 min at 1.6 ml/min, followed by re-equilibration in phase A. The elution of RA and DRA isomers was monitored at 340 and 290 nm, respectively. The peaks were identified based on their spectra and coelution with standards. The cell lysate was examined for expression of RALDH1-4 by SDS-PAGE and immunoblotting of the V5 epitope-tagged recombinant protein using an anti-V5 epitope monoclonal antibody (Invitrogen).

[2] = target: T2, RALDH1 (Mus musculus, UniProt P24549); experiment: as above; assay type: biochemical; conditions: cell homogenate with NAD, NADP, ATP
T2 construct: expressed in transfected cells; host or cells: GnTI-negative HEK-293S, transient; cell homogenate
T2 sequence (P24549 1-501): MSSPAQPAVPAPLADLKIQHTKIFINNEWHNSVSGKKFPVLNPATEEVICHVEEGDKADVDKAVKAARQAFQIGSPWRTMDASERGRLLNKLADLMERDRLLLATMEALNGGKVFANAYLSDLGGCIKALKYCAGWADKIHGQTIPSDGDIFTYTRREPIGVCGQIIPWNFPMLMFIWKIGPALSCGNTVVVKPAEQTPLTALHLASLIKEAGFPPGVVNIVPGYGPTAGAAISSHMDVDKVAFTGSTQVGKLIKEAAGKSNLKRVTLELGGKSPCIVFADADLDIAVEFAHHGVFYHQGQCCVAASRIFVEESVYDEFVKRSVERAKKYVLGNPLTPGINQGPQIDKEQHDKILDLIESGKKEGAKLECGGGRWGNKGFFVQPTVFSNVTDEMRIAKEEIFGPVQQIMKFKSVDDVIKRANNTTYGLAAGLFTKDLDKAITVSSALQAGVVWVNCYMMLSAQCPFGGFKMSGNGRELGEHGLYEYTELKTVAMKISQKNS
Method: as §1

[3] = target: T3, RALDH4 (Mus musculus, UniProt Q8BH00); experiment: as above; assay type: biochemical; conditions: cell homogenate with NAD, NADP, ATP
T3 construct: The full-length cDNA of RALDH2 (MGC:76772, IMAGE: 30471325), RALDH4 (MGC:46977, IMAGE:4223059), and CYP26A1 (MGC:13860, IMAGE:4210893) mRNA was obtained; expressed in transfected cells; host or cells: GnTI-negative HEK-293S, transient; cell homogenate
T3 sequence (Q8BH00 1-487): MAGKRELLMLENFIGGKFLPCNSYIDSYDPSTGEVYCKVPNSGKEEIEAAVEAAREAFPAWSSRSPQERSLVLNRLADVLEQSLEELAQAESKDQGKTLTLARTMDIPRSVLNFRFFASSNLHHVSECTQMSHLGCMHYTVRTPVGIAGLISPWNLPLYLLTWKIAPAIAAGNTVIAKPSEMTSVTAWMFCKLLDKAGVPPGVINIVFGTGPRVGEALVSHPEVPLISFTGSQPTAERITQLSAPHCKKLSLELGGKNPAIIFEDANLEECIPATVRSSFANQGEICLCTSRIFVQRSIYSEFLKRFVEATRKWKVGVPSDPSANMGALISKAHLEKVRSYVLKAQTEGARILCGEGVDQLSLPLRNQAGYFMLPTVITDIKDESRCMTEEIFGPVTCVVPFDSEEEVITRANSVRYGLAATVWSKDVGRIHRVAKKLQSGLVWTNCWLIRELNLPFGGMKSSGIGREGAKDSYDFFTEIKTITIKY
Method: as §1

[4] = target: T4, RALDH2 (Mus musculus, UniProt Q62148); experiment: as above; assay type: biochemical; conditions: cell homogenate with NAD, NADP, ATP
T4 construct: The full-length cDNA of RALDH2 (MGC:76772, IMAGE: 30471325), RALDH4 (MGC:46977, IMAGE:4223059), and CYP26A1 (MGC:13860, IMAGE:4210893) mRNA was obtained; expressed in transfected cells; host or cells: GnTI-negative HEK-293S, transient; cell homogenate
T4 sequence (Q62148 1-518): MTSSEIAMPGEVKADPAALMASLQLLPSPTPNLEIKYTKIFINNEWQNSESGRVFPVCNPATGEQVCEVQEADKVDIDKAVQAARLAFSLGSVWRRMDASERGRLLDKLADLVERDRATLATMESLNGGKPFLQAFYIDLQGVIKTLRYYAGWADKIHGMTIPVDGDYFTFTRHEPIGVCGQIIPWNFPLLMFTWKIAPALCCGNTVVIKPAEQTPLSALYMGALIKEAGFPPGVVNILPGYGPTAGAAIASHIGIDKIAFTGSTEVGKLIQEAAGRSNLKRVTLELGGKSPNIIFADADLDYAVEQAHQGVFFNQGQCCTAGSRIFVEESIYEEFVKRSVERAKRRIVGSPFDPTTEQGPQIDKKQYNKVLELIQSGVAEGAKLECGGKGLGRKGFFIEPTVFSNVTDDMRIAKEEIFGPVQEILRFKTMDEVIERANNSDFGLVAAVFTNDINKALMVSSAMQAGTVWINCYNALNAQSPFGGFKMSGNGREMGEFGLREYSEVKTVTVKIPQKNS
Method: as §1

[5] = target: T5, mouse RALDH2 (Mus musculus, UniProt Q62148); conditions: cited from earlier work
T5 sequence (Q62148 1-518): T4 sequence (Q62148 1-518)

[6] = target: T6, mouse RALDH1 (Mus musculus, UniProt P24549); conditions: cited from earlier work
T6 sequence (P24549 1-501): T2 sequence (P24549 1-501)

SMILES | Oxidation to the acid by RALDH3 [1] | Oxidation to the acid by RALDH1 [2] | Oxidation to the acid by RALDH4 [3] | Oxidation to the acid by RALDH2 [4] | Km [5] | Km [6]
CC(C=CC1=C(C)CCCC1(C)C)=CC=CC(C)CC=O (stereo not drawn) [all-trans-DRAL, 13,14-dihydroretinaldehyde] | efficiently converted | less efficient | less efficient | efficiently converted | – | –
CC1=C(/C=C/C(C)=C/C=C/C(C)=C/C=O)C(C)(C)CCC1 [all-trans-RAL, all-trans-retinal, reference compound] | efficiently converted | less efficient | less efficient | efficiently converted | 0.66 µM | 11.6 µM
